Test results from patent US4363805A, “Aminodesoxy-1.4;3.6-dianhydrohexitol nitrates and pharmaceutical composition” (Firma Willmar Schwabe, priority 1980, dated 1982).

Legend:
[1] = system: isolated guinea pig hearts; test: Experiments on Langendorff hearts (coronary flowthrough, inotropism, frequency); conditions: Cavia porcellus, read-out: flowthrough, percentage change with regard to the initial value
Procedure: After reaching the stationary state in the 30th minute, the hearts were each perfused with 50 ml. tyrode solution with a content of test substance of, in each case, 25 μg./ml. Each test substance was tested on 3-6 hearts.
In each case, there was measured the inotropism, the flowthrough and the frequency, whereby the values given in Table I are average values of the percentage changes in comparison with the initial values.

female NMRI-albino mice = test: Acute toxicity, intravenous, mice; assay type: in vivo; conditions: 200 mg/kg i.v., within 24 hours
[2] = Acute toxicity, intravenous, mice; assay type: in vivo; conditions: mouse, in vivo; intravenous, within 24 hours; read-out: Evaluated LD50-range
narcotised guinea pigs = test: Blood pressure experiments on guinea pigs, i.v.; assay type: in vivo, guinea pig

`O=[N+]([O-])O[C@H]1CO[C@H]2[C@@H]1OC[C@@H]2NC12CC3CC(CC(C3)C1)C2` [11 b] showed an activation at 25 µg/mL [1] of 145%.

With `COc1ccc(CCCN[C@H]2CO[C@H]3[C@@H]2OC[C@@H]3O[N+](=O)[O-])cc1OC` [31 b] the activation at 25 µg/mL [1] was 79.4%.

For `CC(=O)N[C@H]1CO[C@H]2[C@@H]1OC[C@@H]2O[N+](=O)[O-]` [Example 6, 5-Acetylamino-5-desoxy-1.4;3.6-dianhydro-L-iditol 2-nitrate], the Frequency of death (female NMRI-albino mice) was 0/3, the LD50 at 24 h [2] was over 200 mg/kg and the blood pressure after (narcotised guinea pigs; 0.25 mg/kg i.v.) was 63.75 ± 7.32 mm.Hg. For the same compound, the “blood pressure Δ” value (narcotised guinea pigs; 0.25 mg/kg i.v.) was -7.00 mm.Hg, the blood pressure before (narcotised guinea pigs; 0.25 mg/kg i.v., before administration) was 70.75 ± 6.36 mm.Hg and the blood pressure after (narcotised guinea pigs; 1.00 mg/kg i.v.) was 55.75 ± 7.94 mm.Hg. The “blood pressure Δ” value (narcotised guinea pigs; 1.00 mg/kg i.v.) was -14.50 mm.Hg, the blood pressure after (narcotised guinea pigs; 2.50 mg/kg i.v.) was 47.75 ± 5.88 mm.Hg and the “blood pressure Δ” value (narcotised guinea pigs; 2.50 mg/kg i.v.) was -17.75 mm.Hg.

Compound `CN(CCc1ccccc1)[C@H]1CO[C@H]2[C@@H]1OC[C@@H]2O[N+](=O)[O-]` [Example 20, 5-[N-(2-Phenylethyl)-N-methylamino]-5-desoxy-1.4;3.6-dianhydro-L-iditol 2-nitrate] has an activation at 25 µg/mL [1] of 66.9%.

Compound `CN(CCCCCc1ccccc1)[C@H]1CO[C@H]2[C@@H]1OC[C@@H]2O[N+](=O)[O-]` [Example 23, 5-[N-Methyl-N-(5-phenylpentyl)-amino]-5-desoxy-1.4;3.6-dianhydro-L-iditol 2-nitrate] has an activation at 25 µg/mL [1] of 156%.
